Test results reported in patent US5028626A, “Peptides with pharmaceutical activity” (Zambon Group S.p.A., priority 1988, dated 1991).
pIC50: −log10 of the molar value. Where a name gives a salt, the structure may show the parent alone.

Experiments:
[1] = target: T1, purified aminopeptidase obtained from hog kidney (leucineaminopeptidase) (Sus scrofa, UniProt P28839); assay: Inhibitory effect on leucineaminopeptidase activity (L-leucinamide hydrolysis, absorbance at 238 nm); assay type: biochemical; details: leucineamide 50 mM, tris-HCl pH 8.5, MgCl2 5 mM, 25° C., read-out: IC50 (concentration of the compound inducing a 50% decrease of the enzymatic activity)
T1 construct: a purified aminopeptidase obtained from hog kidney; purchased Baehringer (so in the source); host or cells: hog kidney tissue
T1 sequence (P28839 1-519): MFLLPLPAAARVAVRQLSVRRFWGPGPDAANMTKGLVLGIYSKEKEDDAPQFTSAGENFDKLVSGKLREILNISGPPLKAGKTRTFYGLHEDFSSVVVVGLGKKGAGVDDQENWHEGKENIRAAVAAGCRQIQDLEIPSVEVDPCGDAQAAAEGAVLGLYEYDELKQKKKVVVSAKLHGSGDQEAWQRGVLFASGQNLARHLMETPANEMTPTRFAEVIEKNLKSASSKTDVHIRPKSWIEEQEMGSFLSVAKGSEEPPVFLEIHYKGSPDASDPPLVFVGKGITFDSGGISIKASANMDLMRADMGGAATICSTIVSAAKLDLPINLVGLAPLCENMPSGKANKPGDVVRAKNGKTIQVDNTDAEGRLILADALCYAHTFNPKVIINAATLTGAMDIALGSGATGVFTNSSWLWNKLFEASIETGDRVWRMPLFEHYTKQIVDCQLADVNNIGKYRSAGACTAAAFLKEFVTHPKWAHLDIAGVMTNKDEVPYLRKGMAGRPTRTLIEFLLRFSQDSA
Excerpt: (§1) The activity of the compounds of formula I has been evaluated as inhibitory effect on the activity of leucineaminopeptidase and as stimulating effect on the mitogenetic activity of mouse splenic lymphocytes.
The inhibitory effect of the tested compounds has been evaluated on a purified aminopeptidase obtained from hog kidney (Baehringer, 100U/mg).
The enzymatic activity was estimated spectrophotometrically by using L-leucinamide as substrate and by measuring the hydrolysis of the peptide bond as decrease of absorbance at 238 nm.
The enzyme was activated prior to assay at 37° C. for 2 hours, in the presence of MgCl2 1 mM and tris-HCl buffer 20 mM pH 8.5 in a total volume of 2.5 ml.
The enzymatic reaction was followed at 238 nm for at least 30 minutes at 25° C. in 2.5 ml of an incubation medium containing 50 μg of enzyme, leucineamide 50 mM, tris-HCl buffer 20 mM pH 8.5 and MgCl2 5 mM in the absence or in the presence of increasing concentrations of the tested compound.
The inhibitory effect was expressed as the concentration of the compound inducing a 50% decrease of the enzymatic activity (IC50, nmoles/1).

[2] = test system: mouse splenic lymphocytes; assay: Immunostimulating (mitogenetic) activity: 3H-timidine incorporation in mouse splenic lymphocytes; assay type: cell-based, mouse (C3H/H2); details: compound at 1 μM; 48 h + 24 h incubation with 3H-TMD
Experimental: as §1
The immunostimulating activity has been evaluated as ability to stimulate the incorporation of ^3 H-timidine (^3 H-TMD) in a culture of mouse splenic lymphocytes.
The splenic cells were drawn form C3H/H2 mice (age: 6-8 weeks) and suspended in RPMI-1640 medium containing HEPES 20 mM and 10% bovine fetal serum (inactivated to heat) at the concentration of 5×10^6 cells/ml.
Cells were sowed of Microtest plates (Falcon 3072) in the absence and in the presence of different concentrations of the compounds of formula I in a volume of 0.2 ml of medium.
After an incubation period of 48 hours at 37° C. in humidified environment at 5% CO2 /O2, 0.5 microCi of ^3 H-TMD (specific activity 2 Ci/mmoles) were added and the incubation was protracted for further 24 hours.
Cells were collected by filtration (Tretertek Cell Harnester) and the incorporated radioactivity was measured by Packard TRI-CARB 4530 scintillator.
The mitogenetic effect was expressed as percentage increase in the incorporation of ^3 H-TMD in lymphocytes incubated with the compounds of formula I at the concentration of 1 μM with respect to the basal incorporation value.

| pIC50 [1] | Compound | percentage increase in the incorporation of 3H-TMD in lymphocytes with respect to the basal incorporation value [2] [%] |
| --- | --- | --- |
| 8.00 | CC(C)C[C@H](NC(=O)[C@@H](O)[C@H](N)Cc1ccc(S(C)(=O)=O)cc1)C(=O)O [Example 3, N-[(2S,3R)-3-amino-2-hydroxy-4-(4-methylsulfonylphenyl)-butanoyl]-L-leucine] | – |
| 7.96 | CSc1ccc(C[C@@H](N)[C@H](O)C(=O)N[C@@H](CC(C)C)C(=O)O)cc1 [Example 11, N-[(2S,3R)-3-amino-2-hydroxy-4-(4-methylthiophenyl)-butanoyl]-L-leucine hydrobromide] | – |
| – | CC(C)C[C@H](NC(=O)[C@H](O)[C@@H](N)Cc1ccc(S(C)(=O)=O)cc1)C(=O)O [Example 4, N-[(2R,3S)-3-amino-2-hydroxy-4-(4-methylsulfonylphenyl)-butanoyl]-L-leucine] | 109 |
